From US20240138417A1, “TRICHODERMA-BASED BIOENHANCER FOR FOLIAR APPLICATION IN PLANTS” (YPF TECNOLOGÍA S.A., priority 2022, published 2024) come the findings set out here.

Experiment [1] relates to Arabidopsis thaliana seedlings. The experiment is described as follows: Auxin activity, root growth bioassay in A. thaliana seedlings. Format: in vivo. Particulars: 4-days old seedlings, MS-Agar; formulation 0.1, 1, 10, 25% v/v; IAA 1, 10 and 100 nM. As for the experimental part:
Auxin Activity • Auxin activity was determined by measuring the growth of the main root in seedlings of Arabidopsis thaliana, and the amount of side roots to estimate the root density according to Iglesias et al. (2014). Briefly, 4-days old A. thaliana seedlings were grown in a MS-Agar medium supplemented with different concentrations of the formulation of Example 5 (0.1, 1, 10, 25% v/v). As reference, different concentrations of indole-acetic acid (IAA) were used (1, 10 and 100 nM). Three independent assays were carried out, with 8 seedlings per treatment (N=24).

The test system of experiment [2] is cucumber cotyledons (Cucumis sativus var. Runner). The experiment is described as follows: Cytokinin activity, cucumber cotyledons greening bioassay (chlorophyll content). The note with it: incubated 20 h, then light 16 hs; SPAD detector and acetone extraction. The method, then: Cytokinin Activity • Cytokinin activity was determined by quantifying the chlorophyll content in cucumber cotyledons (Fletcher et al., 1982). Briefly, cucumber (Cucumis sativus var. Runner) seeds were germinated and grown in darkness for 7 days. Then, the cotyledons were cut and incubated for 20 h under different concentrations of the formulation of Example 5 (0.1, 1, 10 and 100% v/v). As a positive control, different concentrations of a cytokinin analog, kinetin, were used (0.01, 0.1, 1 and 10 μg/ml). Then the cotyledons were exposed to light for 16 hs, and the chlorophyll content was determined by two methods: by means of a manual SPAD detector (Chlorophyll meter SPAD-502, Konica Minolta), and by extracting the chlorophyll with acetone (Arnon 1949). Three independent assays were carried out, with 8 cotyledons per treatment (N=24).

As for `O=C(O)Cc1c[nH]c2ccccc12` [IAA, indole-acetic acid], in experiment [1], the “growth of the main root” value is “dose-dependent shortening of the main root” and the “number of side roots” value is “increase in the number of side roots”.

With `c1coc(CNc2ncnc3[nH]cnc23)c1` [kinetin], the “greening of cotyledons (chlorophyll content)” value in experiment [2] was “stimulated the greening of the etiolated cotyledons depending on the dose”.
